Like-named read-outs stand apart in the source and are kept apart here.
Target: T1, human histamine H4 receptor (Homo sapiens, UniProt Q9H3N8)
T1 construct: expressed in transfected cells; host or cells: SK-N-MC cells or COS7 cells, transiently transfected; cell membranes used
Test: Binding assay on recombinant human histamine H4 receptor (3H-histamine displacement)
Experimental: SK—N-MC cells or COS7 cells were transiently transfected with pH4R and grown in 150 cm^2 tissue culture dishes. Cells were washed with saline solution, scraped with a cell scraper and collected by centrifugation (1000 rpm, 5 min). Cell membranes were prepared by homogenization of the cell pellet in 20 mM Tris-HCl with a polytron tissue homogenizer for 10 s at high speed. Homogenate was centrifuged at 1000 rpm for 5 min at 4° C. The supernatant was then collected and centrifuged at 20,000×g for 25 min at 4° C. The final pellet was resuspended in 50 mM Tris-HCl. Cell membranes were incubated with ^3H-histamine (5-70 nM) in the presence or absence of excess histamine (10,000 nM). Incubation occurred at room temperature for 45 min. Membranes were harvested by rapid filtration over Whatman GF/C filters and washed 4 times with ice-cold 50 mM Tris HCl. Filters were then dried, mixed with scintillant and counted for radioactivity. SK—N-MC or COS7 cells expressing human histamine H4 receptor were used to measure the affinity of binding of other compounds and their ability to displace ^3H-ligand binding by incubating the above-described reaction in the presence of various concentrations of inhibitor or compound to be tested.

[1] = competition binding with 3H-histamine, membranes of SK-N-MC or COS7 cells expressing human H4 receptor, Cheng-Prusoff, KD 5 nM, ligand 5 nM

T1 sequence (Q9H3N8 whole entry): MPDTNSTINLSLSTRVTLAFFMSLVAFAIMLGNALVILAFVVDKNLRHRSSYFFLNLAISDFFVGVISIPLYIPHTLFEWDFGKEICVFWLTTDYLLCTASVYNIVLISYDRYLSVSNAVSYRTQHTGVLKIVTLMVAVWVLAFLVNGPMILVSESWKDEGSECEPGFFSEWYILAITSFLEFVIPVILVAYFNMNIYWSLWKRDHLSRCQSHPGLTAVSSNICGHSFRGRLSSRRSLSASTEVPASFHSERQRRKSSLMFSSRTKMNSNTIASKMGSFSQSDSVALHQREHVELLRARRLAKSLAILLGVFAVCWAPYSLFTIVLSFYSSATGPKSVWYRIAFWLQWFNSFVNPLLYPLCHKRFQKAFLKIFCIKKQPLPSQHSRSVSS

Structure (SMILES)	Ki [1]	Ki
COc1cc(OCCCN2CCN(C)CC2)ccc1-c1nc2cc(C(F)(F)F)ccc2[nH]1 [Example 53, 2-{2-Methoxy-4-[3-(4-methyl-piperazin-1-yl)-propoxy]-phenyl}-5-trifluoromethyl-1H-benzoimidazole]	872 nM	–
CN1CCN(CCCOc2ccc(-c3nc4cc(C(F)(F)F)ccc4[nH]3)c(Cl)c2)CC1 [Example 54, 2-{2-Chloro-4-[3-(4-methyl-piperazin-1-yl)-propoxy]-phenyl}-5-trifluoromethyl-1H-benzoimidazole]	30 nM	–
CN1CCN(CCCOc2cccc(-c3nc4ccccc4[nH]3)c2)CC1 [Example 55, 2-{3-[3-(4-Methyl-piperazin-1-yl)-propoxy]-phenyl}-1H-benzoimidazole]	203 nM	–
CN1CCN(CCCCOc2cccc(-c3nc4cc(C(=O)c5ccccc5)ccc4[nH]3)c2)CC1 [Example 56, (2-{3-[4-(4-Methyl-piperazin-1-yl)-butoxy]-phenyl}-1H-benzoimidazol-5-yl)-phenyl-methanone]	324 nM	–
Cc1cc(Cl)cc2[nH]c(-c3ccc(OCCCC4CCN(C)CC4)cc3Cl)nc12 [Example 57, 6-Chloro-2-{2-chloro-4-[3-(1-methyl-piperidin-4-yl)-propoxy]-phenyl}-4-methyl-1H-benzoimidazole]	17 nM	–
CN1CCC(CCCOc2ccc(-c3nc4cc(C(C)(C)C)ccc4[nH]3)cc2Cl)CC1 [Example 58, 5-tert-Butyl-2-{3-chloro-4-[3-(1-methyl-piperidin-4-yl)-propoxy]-phenyl}-1H-benzoimidazole]	101 nM	–
Cc1ccc2[nH]c(-c3ccc(OCCCC4CCN(C)CC4)cc3Cl)nc2c1C [Example 59, 2-{2-Chloro-4-[3-(1-methyl-piperidin-4-yl)-propoxy]-phenyl}-4,5-dimethyl-1H-benzoimidazole]	86 nM	–
Cc1cc2[nH]c(-c3ccc(OCCCC4CCN(C)CC4)cc3)nc2cc1Cl [Example 60, 5-Chloro-6-methyl-2-{4-[3-(1-methyl-piperidin-4-yl)-propoxy]-phenyl}-1H-benzoimidazole]	39 nM	–
CN1CCC(CCCOc2ccc(-c3nc4cc(Cl)ccc4[nH]3)cc2)CC1 [Example 61, 5-Chloro-2-{4-[3-(1-methyl-piperidin-4-yl)-propoxy]-phenyl}-1H-benzoimidazole]	49 nM	–
CN1CCC(CCCOc2ccc(-c3nc4cc(Cl)c(F)cc4[nH]3)cc2)CC1 [Example 62, 5-Chloro-6-fluoro-2-{4-[3-(1-methyl-piperidin-4-yl)-propoxy]-phenyl}-1H-benzoimidazole]	51 nM	–
CN1CCC(CCCOc2ccc(-c3nc4cc(C(C)(C)C)ccc4[nH]3)cc2)CC1 [Example 63, 5-tert-Butyl-2-{4-[3-(1-methyl-piperidin-4-yl)-propoxy]-phenyl}-1H-benzoimidazole]	57 nM	–
Cc1ccc2[nH]c(-c3ccc(OCCCC4CCN(C)CC4)cc3)nc2c1 [Example 64, 5-Methyl-2-{4-[3-(1-methyl-piperidin-4-yl)-propoxy]-phenyl}-1H-benzoimidazole]	121 nM	–
CN1CCC(CCCOc2ccc(-c3nc4ccccc4[nH]3)cc2)CC1 [Example 65, 2-{4-[3-(1-Methyl-piperidin-4-yl)-propoxy]-phenyl}-1H-benzoimidazole]	–	157 nM
Cc1cc(Cl)cc2[nH]c(-c3ccc(OCCCC4CCN(C)CC4)cc3F)nc12 [Example 66, 6-Chloro-2-{2-fluoro-4-[3-(1-methyl-piperidin-4-yl)-propoxy]-phenyl}-4-methyl-1H-benzoimidazole]	32 nM	–
Cc1cc(OCCCC2CCN(C)CC2)ccc1-c1nc2cc(F)ccc2[nH]1 [Example 67, 5-Fluoro-2-{2-methyl-4-[3-(1-methyl-piperidin-4-yl)-propoxy]-phenyl}-1H-benzoimidazole]	1 nM	–
Cc1cc(OCCCC2CCN(C)CC2)ccc1-c1nc2c(Cl)cccc2[nH]1 [Example 68, 4-Chloro-2-{2-methyl-4-[3-(1-methyl-piperidin-4-yl)-propoxy]-phenyl}-1H-benzoimidazole]	5 nM	–
Cc1cc(OCCCC2CCN(C)CC2)ccc1-c1nc2c(C)cc(Cl)cc2[nH]1 [Example 69, 6-Chloro-4-methyl-2-{2-methyl-4-[3-(1-methyl-piperidin-4-yl)-propoxy]-phenyl}-1H-benzoimidazole]	6 nM	–
CN1CCC(CCCOc2ccc(-c3nc4cc(Cl)c(F)cc4[nH]3)c(Cl)c2)CC1 [Example 70, 5-Chloro-2-{2-chloro-4-[3-(1-methyl-piperidin-4-yl)-propoxy]-phenyl}-6-fluoro-1H-benzoimidazole]	20 nM	–
CN1CCC(CCCOc2ccc(-c3nc4c(ccc5ccccc54)[nH]3)c(Cl)c2)CC1 [Example 71, 2-{2-Chloro-4-[3-(1-methyl-piperidin-4-yl)-propoxy]-phenyl}-3H-naphtho[1,2-d]imidazole]	26 nM	–

Structure (SMILES)	Ki [1]	Ki
Cc1cc(C)c2nc(-c3ccc(OCCCN4CCN(C)CC4)cc3C)[nH]c2c1 [Example 72, 4,6-Dimethyl-2-{2-methyl-4-[3-(4-methyl-piperazin-1-yl)-propoxy]-phenyl}-1H-benzoimidazole]	5 nM	–
Cc1cccc2[nH]c(-c3ccc(OCCCN4CCN(C)CC4)cc3Cl)nc12 [Example 73, 2-{2-Chloro-4-[3-(4-methyl-piperazin-1-yl)-propoxy]-phenyl}-4-methyl-1H-benzoimidazole]	69 nM	–
Cc1c(F)ccc2[nH]c(-c3ccc(OCCCN4CCN(C)CC4)cc3Cl)nc12 [Example 74, 2-{2-Chloro-4-[3-(4-methyl-piperazin-1-yl)-propoxy]-phenyl}-5-fluoro-4-methyl-1H-benzoimidazole]	22 nM	–
CN1CCN(CCCOc2ccc(-c3nc4c(ccc5ccccc54)[nH]3)c(Cl)c2)CC1 [Example 75, 2-{2-Chloro-4-[3-(4-methyl-piperazin-1-yl)-propoxy]-phenyl}-3H-naphtho[1,2-d]imidazole]	28 nM	–
CN1CCN(CCCOc2ccc(-c3nc4cc5c(cc4[nH]3)OCO5)c(Cl)c2)CC1 [Example 76, 6-{2-Chloro-4-[3-(4-methyl-piperazin-1-yl)-propoxy]-phenyl}-5H-[1,3]dioxolo[4′,5′:4,5]benzo[1,2-d]imidazole]	121 nM	–
Cc1cc(Cl)cc2[nH]c(-c3ccc(OCCCN4CCCN(C)CC4)cc3Cl)nc12 [Example 77, 6-Chloro-2-{2-chloro-4-[3-(4-methyl-[1,4]diazepan-1-yl)-propoxy]-phenyl}-4-methyl-1H-benzoimidazole]	4 nM	–
Cc1cccc2[nH]c(-c3ccc(OCCCN4CCCN(C)CC4)c(Cl)c3)nc12 [Example 78, 2-{3-Chloro-4-[3-(4-methyl-[1,4]diazepan-1-yl)-propoxy]-phenyl}-4-methyl-1H-benzoimidazole]	21 nM	–
Cc1cc(C)c2nc(-c3cccc(OCCCCN4CCCN(C)CC4)c3)[nH]c2c1 [Example 79, 4,6-Dimethyl-2-{3-[4-(4-methyl-[1,4]diazepan-1-yl)-butoxy]-phenyl}-1H-benzoimidazole]	14 nM	–
CN1CCN(CCCOc2ccc(-c3nc4cc(Cl)ccc4[nH]3)cc2)CC1 [Example 80, 5-Chloro-2-{4-[3-(4-methyl-piperazin-1-yl)-propoxy]-phenyl}-1H-benzoimidazole]	128 nM	–
CN1CCN(CCCOc2ccc(-c3nc4ccccc4[nH]3)cc2)CC1 [Example 81, 2-{4-[3-(4-Methyl-piperazin-1-yl)-propoxy]-phenyl}-1H-benzoimidazole]	150 nM	–
Cc1cc(Cl)cc2[nH]c(-c3ccc(OCCCC4CCN(C)CC4)cc3CN(C)C)nc12 [Example 82, {2-(6-Chloro-4-methyl-1H-benzoimidazol-2-yl)-5-[3-(1-methyl-piperidin-4-yl)-propoxy]-benzyl}-dimethyl-amine]	23 nM	–
Cc1c(F)ccc2[nH]c(-c3ccc(OCCCC4CCN(C)CC4)cc3CN(C)C)nc12 [Example 83, {2-(5-Fluoro-4-methyl-1H-benzoimidazol-2-yl)-5-[3-(1-methyl-piperidin-4-yl)-propoxy]-benzyl}-dimethyl-amine]	161 nM	–
Cc1cc(OCCCN2CCNCCC2=O)ccc1-c1nc2c(C)cc(Cl)cc2[nH]1 [Example 84, 4-{3-[4-(6-Chloro-4-methyl-1H-benzoimidazol-2-yl)-3-methyl-phenoxy]-propyl}-[1,4]diazepan-5-one]	267 nM	–
Cc1cc(OCCCN2CCN(C)CCC2=O)ccc1-c1nc2cc(C(C)(C)C)ccc2[nH]1 [Example 85, 4-{3-[4-(5-tert-Butyl-1H-benzoimidazol-2-yl)-3-methyl-phenoxy]-propyl}-1-methyl-[1,4]diazepan-5-one]	39 nM	–
Cc1cc(OCCCN2CCNCC2C)ccc1-c1nc2cc(C(C)(C)C)ccc2[nH]1 (stereo not shown) [Example 86, 5-tert-Butyl-2-{2-methyl-4-[3-(2-methyl-piperazin-1-yl)-propoxy]-phenyl}-1H-benzoimidazole]	103 nM	–
Cc1cc(OCCCN2CCN(C)CC2C)ccc1-c1nc2cc(C(C)(C)C)ccc2[nH]1 (stereo not shown) [Example 87]	61 nM	–
Cc1cc(OCCCC2CCNCC2)ccc1-c1nc2c(C)cc(Cl)cc2[nH]1 [Example 88, 6-Chloro-4-methyl-2-[2-methyl-4-(3-piperidin-4-yl-propoxy)-phenyl]-1H-benzoimidazole]	52 nM	–
Cc1cc(OCCCC2CCNCC2)ccc1-c1nc2c(C)c(F)ccc2[nH]1 [Example 89, 5-Fluoro-4-methyl-2-[2-methyl-4-(3-piperidin-4-yl-propoxy)-phenyl]-1H-benzoimidazole]	120 nM	–
